Patent US12226401B2, “Molecular genetic approach to treatment and diagnosis of alcohol and drug dependence” (priority 2010, dated 2025)

Tested on: alcohol dependent individuals
Test: Randomized, double-blind, placebo-controlled, 12-week clinical trial of ondansetron vs placebo in alcohol dependent individuals by genotype: drinks per drinking day (DDD)
Format: in vivo, human
Settings: for Drinks per Drinking Days, Least Squares Mean (Estimated Mean): OND
Method: Two hundred and seventy eight male and female alcohol dependent individuals were entered into a randomized, double-blind, placebo-controlled, 12-week clinical trial. These individuals were divided into TT vs. […] The polymorphisms in 3''-UTR region of a gene may affect mRNA expression levels by altering their stability. […] Data was transformed to its natural log to correct for skewness. […] In total, ten SNPs in 5HT3a and nine SNPs in 5HT3b genes were analyzed in this study: […]

Compound: Cc1nccn1CC1CCc2c(c3ccccc3n2C)C1=O (stereo not drawn) [ondansetron, 9-methyl-3-[(2-methyl-1H-imidazol-1-yl)methyl]-1,2,3,9-tetrahydrocarbazol-4-one]
- Estimate, OND vs. Placebo, drinks per drinking days (DDD) (AA or AC (RS1176719, RS17614942)): −2.83 DDD
- Estimate, OND vs. Placebo, drinks per drinking days (DDD) (AG or AC (RS1150226, RS17614942)): −2.12 DDD
- Estimate, OND vs. Placebo, drinks per drinking days (DDD) (AG or GG (RS1150226, RS1176713)): −2.43 DDD
- Least Squares Mean Difference, Drinks per Drinking Days, OND vs. Placebo (Among Comb (LL + TT or AC or AG)): −1.75
- Least Squares Mean Difference, Drinks per Drinking Days, Comb vs. Others (Among OND, Comb = LL + TT or AC or AG): −2.21
- Least Squares Mean Difference, Drinks per Drinking Days, AG/AA vs. GG (Among OND, RS1150226): −1.91
- Least Squares Mean Difference, Drinks per Drinking Days, AC/AA vs. CC (Among OND, RS17614942): −2.13
- Least Squares Mean Difference, Drinks per Drinking Days, AC/AA vs. CC (Among OND, model RS17614942 (CC/AA, AC), Table 2G): −2.22
- Least Squares Mean Difference, Drinks per Drinking Days, OND vs. Placebo (Among RS1150226 AG/AA): −1.80
- Least Squares Mean Difference, Drinks per Drinking Days, OND vs. Placebo (Among RS17614942 AC/AA): −2.51
- Least Squares Mean, Drinks per Drinking Days (Comb (LL + TT or AC or AG)): 4.21
- Estimate, OND vs. Placebo, drinks per drinking days (DDD) (GG or AC (RS1176713, RS17614942)): −3.08 DDD
- Estimate, OND vs. Placebo, drinks per drinking days (DDD) (LL + AA (5-HTTLPR, RS1176719)): −5.22 DDD
- Estimate, OND vs. Placebo, drinks per drinking days (DDD) (LL + AA + AC (5-HTTLPR, RS1176719, RS17614942)): −5.96 DDD
- Estimate, OND vs. Placebo, drinks per drinking days (DDD) (LL + AC (5-HTTLPR, RS17614942)): −4.24 DDD
- Estimate, OND vs. Placebo, drinks per drinking days (DDD) (LL + AG (5-HTTLPR, RS1150226)): −3.06 DDD
- Estimate, OND vs. Placebo, drinks per drinking days (DDD) (LL + AG + AC (5-HTTLPR, RS1150226, RS17614942)): −4.09 DDD
- Drinks per Drinking Days, Least Squares Estimated Mean Difference (LL + CT/TT: OND vs. Placebo, simplified model): −1.55
- Estimate, OND vs. Placebo, drinks per drinking days (DDD) (LL + GG (5-HTTLPR, RS1176713)): −4.48 DDD
- Estimate, OND vs. Placebo, drinks per drinking days (DDD) (LL + TT (5-HTTLPR, RS1042173)): −2.08 DDD
- Estimate, OND vs. Placebo, drinks per drinking days (DDD) (LL + TT + AA (5-HTTLPR, RS1042173, RS1176719)): −8.50 DDD
- Estimate, OND vs. Placebo, drinks per drinking days (DDD) (LL or AA or AC (5-HTTLPR, RS1176719, RS17614942)): −1.55 DDD
- Estimate, OND vs. Placebo, drinks per drinking days (DDD) (LL or AC (5-HTTLPR, RS17614942)): −1.53 DDD
- Estimate, OND vs. Placebo, drinks per drinking days (DDD) (LL or AG (5-HTTLPR, RS1150226)): −1.37 DDD
- Estimate, OND vs. Placebo, drinks per drinking days (DDD) (LL or AG or AC (5-HTTLPR, RS1150226, RS17614942)): −1.43 DDD
- Estimate, OND vs. Placebo, drinks per drinking days (DDD) (LL or GG (5-HTTLPR, RS1176713)): −1.60 DDD
- Estimate, OND vs. Placebo, drinks per drinking days (DDD) (LL or GG or AC (5-HTTLPR, RS1176713, RS17614942)): −1.57 DDD
- Estimate, OND vs. Placebo, drinks per drinking days (DDD) (LL or TT (5-HTTLPR, RS1042173)): −0.87 DDD
- Estimate, OND vs. Placebo, drinks per drinking days (DDD) (LL or TT or AA (5-HTTLPR, RS1042173, RS1176719)): −0.99 DDD
- Estimate, OND vs. Placebo, drinks per drinking days (DDD) (LL or TT or AA or AC (5-HTTLPR, RS1042173, RS1176719, RS17614942)): −1.02 DDD
- Estimate, OND vs. Placebo, drinks per drinking days (DDD) (LL or TT or AC (5-HTTLPR, RS1042173, RS17614942)): −0.97 DDD
- Estimate, OND vs. Placebo, drinks per drinking days (DDD) (LL or TT or AG (5-HTTLPR, RS1042173, RS1150226)): −0.94 DDD
- Estimate, OND vs. Placebo, drinks per drinking days (DDD) (LL or TT or AG or AC (5-HTTLPR, RS1042173, RS1150226, RS17614942)): −0.93 DDD
- Estimate, OND vs. Placebo, drinks per drinking days (DDD) (LL or TT or GG (5-HTTLPR, RS1042173, RS1176713)): −0.94 DDD
- Reduction of DDD by ondansetron, carriers vs non-carriers of genotype combination (LL+AC/AA (5HTTLPR + rs17614942)): 3.33 sd
- Reduction of DDD by ondansetron, carriers vs non-carriers of genotype combination (LL+CT/TT (5HTTLPR + rs4938056)): 1.82 sd
- Drinks per Drinking Days, Least Squares Estimated Mean Difference (OND vs. Placebo, all genotypes, model RS17614942): −0.96
- Drinks per Drinking Days, Least Squares Estimated Mean Difference (OND vs. Placebo, all genotypes, model RS17614942 and 5-HTTLPR): −1.13
- Drinks per Drinking Days, Least Squares Mean (Estimated Mean) (5-HTTLPR LL, model 5-HTTLPR and RS1062613): 4.80
- Drinks per Drinking Days, Least Squares Mean (Estimated Mean) (5-HTTLPR LL, model 5-HTTLPR and RS1150226): 4.59
- Drinks per Drinking Days, Least Squares Mean (Estimated Mean) (5-HTTLPR LL, model RS4938056 and 5-HTTLPR): 5.18
- Drinks per Drinking Days, Least Squares Mean (Estimated Mean) (5-HTTLPR LL, model RS17614942 and 5-HTTLPR): 4.43
- Drinks per Drinking Days, Least Squares Mean (Estimated Mean) (5-HTTLPR LS/SS, model 5-HTTLPR and RS1062613): 6.19
- Drinks per Drinking Days, Least Squares Mean (Estimated Mean) (5-HTTLPR LS/SS, model 5-HTTLPR and RS1150226): 5.86
- Drinks per Drinking Days, Least Squares Mean (Estimated Mean) (5-HTTLPR LS/SS, model RS4938056 and 5-HTTLPR): 6.54
- Drinks per Drinking Days, Least Squares Mean (Estimated Mean) (5-HTTLPR LS/SS, model RS17614942 and 5-HTTLPR): 5.76
- Drinks per Drinking Days, Least Squares Mean (Estimated Mean) (LL + CT/TT, simplified model): 4.61
- Drinks per Drinking Days, Least Squares Mean (Estimated Mean) (Others (not LL + CT/TT), simplified model): 6.25
- Drinks per Drinking Days, Least Squares Mean (Estimated Mean) (RS1062613 TC/CC, model 5-HTTLPR and RS1062613): 4.98
- Drinks per Drinking Days, Least Squares Mean (Estimated Mean) (RS1062613 TC/CC, model RS1062613): 5.13
- Drinks per Drinking Days, Least Squares Mean (Estimated Mean) (RS1062613 TT, model 5-HTTLPR and RS1062613): 6.02
- Drinks per Drinking Days, Least Squares Mean (Estimated Mean) (RS1062613 TT, model RS1062613): 6.19
- Drinks per Drinking Days, Least Squares Mean (Estimated Mean) (RS1150226 AG/AA, model 5-HTTLPR and RS1150226): 4.60
- Drinks per Drinking Days, Least Squares Mean (Estimated Mean) (RS1150226 AG/AA, model RS1150226): 4.58
- Drinks per Drinking Days, Least Squares Mean (Estimated Mean) (RS1150226 GG, model 5-HTTLPR and RS1150226): 5.85
- Drinks per Drinking Days, Least Squares Mean (Estimated Mean) (RS1150226 GG, model RS1150226): 6.04
- Drinks per Drinking Days, Least Squares Mean (Estimated Mean) (RS4938056 CC, model RS4938056): 6.67
- Drinks per Drinking Days, Least Squares Mean (Estimated Mean) (RS4938056 CC, model RS4938056 and 5-HTTLPR): 6.42
- Drinks per Drinking Days, Least Squares Mean (Estimated Mean) (RS4938056 CT/TT, model RS4938056): 5.43
- Drinks per Drinking Days, Least Squares Mean (Estimated Mean) (RS4938056 CT/TT, model RS4938056 and 5-HTTLPR): 5.29
- Drinks per Drinking Days, Least Squares Mean (Estimated Mean) (RS17614942 AC/AA, model RS17614942): 4.40
- Drinks per Drinking Days, Least Squares Mean (Estimated Mean) (RS17614942 AC/AA, model RS17614942 and 5-HTTLPR): 4.37
- Drinks per Drinking Days, Least Squares Mean (Estimated Mean) (RS17614942 CC, model RS17614942): 6.00
- Drinks per Drinking Days, Least Squares Mean (Estimated Mean) (RS17614942 CC, model RS17614942 and 5-HTTLPR): 5.82
- Drinks per Drinking Days, Least Squares Mean (Estimated Mean) (all genotypes, model 5-HTTLPR and RS1062613): 5.50
- Drinks per Drinking Days, Least Squares Mean (Estimated Mean) (all genotypes, model 5-HTTLPR and RS1150226): 5.23
- Drinks per Drinking Days, Least Squares Mean (Estimated Mean) (all genotypes, model RS1062613): 5.66
- Drinks per Drinking Days, Least Squares Mean (Estimated Mean) (all genotypes, model RS1150226): 5.31
- Drinks per Drinking Days, Least Squares Mean (Estimated Mean) (all genotypes, model RS4938056): 6.05
- Drinks per Drinking Days, Least Squares Mean (Estimated Mean) (all genotypes, model RS4938056 and 5-HTTLPR): 5.86
- Drinks per Drinking Days, Least Squares Mean (Estimated Mean) (all genotypes, model RS17614942): 5.20
- Drinks per Drinking Days, Least Squares Mean (Estimated Mean) (all genotypes, model RS17614942 and 5-HTTLPR): 5.09
- Drinks per Drinking Days, Least Squares Mean (Estimated Mean) (all genotypes, simplified model, combined genotype LL + CT/TT vs Others): 5.43
- Least Squares Mean, Drinks per Drinking Days (Others (not LL + TT or AC or AG)): 6.42
- Estimate, OND vs. Placebo, drinks per drinking days (DDD) (RS1042173 (TT)): −0.86 DDD
- Least Squares Mean, Drinks per Drinking Days (RS1150226 AG (as printed, Table 3F)): 6.08
- Least Squares Mean, Drinks per Drinking Days (RS1150226 AG/AA): 4.20
- Least Squares Mean, Drinks per Drinking Days (RS1150226 GG): 6.11
- Least Squares Mean, Drinks per Drinking Days (RS1150226 GG/AA (as printed, Table 3F)): 4.19
- Least Squares Mean, Drinks per Drinking Days (RS17614942 AC): 3.87
- Least Squares Mean, Drinks per Drinking Days (RS17614942 AC/AA): 3.90
